The values that follow come from ChEMBL document CHEMBL3351445, “Potent 11β-hydroxylase inhibitors with inverse metabolic stability in human plasma and hepatic S9 fractions to promote wound healing” (J Med Chem, 2014).

Bounds are passed on as bounds.

One may read the inhibition as the relative decrease from the control value, in per cent. Read a low inhibition as a weak effect. A word on the IC50: it is the concentration at which inhibition is half-maximal. A higher IC50 goes with weaker potency. The term half-life denotes the time needed for the level to fall by half in the phase considered. Read a high half-life as slow loss.

The target in one data set is T1, CYP19 (aromatase) (Homo sapiens, UniProt P11511).
T1 sequence (P11511 whole entry): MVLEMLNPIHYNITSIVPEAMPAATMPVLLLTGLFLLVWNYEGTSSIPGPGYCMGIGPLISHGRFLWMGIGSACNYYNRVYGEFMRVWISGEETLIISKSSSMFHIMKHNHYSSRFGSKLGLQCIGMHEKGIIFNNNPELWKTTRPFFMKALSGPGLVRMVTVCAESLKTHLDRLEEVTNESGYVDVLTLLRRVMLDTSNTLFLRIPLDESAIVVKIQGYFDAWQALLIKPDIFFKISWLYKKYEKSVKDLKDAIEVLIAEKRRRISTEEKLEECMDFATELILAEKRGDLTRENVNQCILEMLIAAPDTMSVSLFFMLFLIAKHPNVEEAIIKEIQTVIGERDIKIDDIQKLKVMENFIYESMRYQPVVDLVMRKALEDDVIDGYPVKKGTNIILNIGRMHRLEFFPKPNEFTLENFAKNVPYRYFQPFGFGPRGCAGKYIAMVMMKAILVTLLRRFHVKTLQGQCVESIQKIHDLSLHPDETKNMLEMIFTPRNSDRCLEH
The data set is described as follows: Inhibition of human placental CYP19 using [1beta-3H]androstenedione as substrate at 2 uM by 3H2O-method. The conditions noted are these: human placental CYP19, probe [1beta-3H]androstenedione.

For data set [1], the system named is V79MZh. The data set is described as follows: Selectivity ratio of IC50 for human placental CYP19 to IC50 for human CYP11B1 expressed in hamster V79MZh cells. In kind it is cell-based.
Data set [2] relates to V79MZh. The data set is described as follows: Selectivity ratio of IC50 for human CYP17 expressed in Escherichia coli to IC50 for human CYP11B1 expressed in hamster V79MZh cells.
Data set [3] has as its target T2, Cytochrome P450 11B1, mitochondrial (Homo sapiens, UniProt P15538).
T2 sequence (P15538 whole entry): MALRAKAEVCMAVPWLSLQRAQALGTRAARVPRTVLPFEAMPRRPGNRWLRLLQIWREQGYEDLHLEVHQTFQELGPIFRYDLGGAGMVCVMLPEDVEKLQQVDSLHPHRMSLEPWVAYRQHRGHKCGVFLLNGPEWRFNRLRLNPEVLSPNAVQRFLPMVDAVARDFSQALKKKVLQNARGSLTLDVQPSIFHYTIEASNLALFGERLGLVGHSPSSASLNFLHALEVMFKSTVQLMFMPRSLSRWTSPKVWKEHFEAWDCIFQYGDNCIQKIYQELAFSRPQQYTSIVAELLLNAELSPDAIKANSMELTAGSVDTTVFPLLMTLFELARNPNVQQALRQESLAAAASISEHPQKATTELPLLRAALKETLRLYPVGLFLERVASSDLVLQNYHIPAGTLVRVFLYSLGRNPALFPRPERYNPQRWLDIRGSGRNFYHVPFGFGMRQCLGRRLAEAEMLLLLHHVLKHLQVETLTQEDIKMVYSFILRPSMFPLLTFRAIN
The data set is described as follows: Inhibition of human CYP11B1 expressed in hamster V79MZh cells using [1,2-3H]-11-deoxycorticosterone as substrate.

Data set [4] addresses T3, Cytochrome P450 11B2, mitochondrial (Homo sapiens, UniProt P19099).
T3 sequence (P19099 whole entry): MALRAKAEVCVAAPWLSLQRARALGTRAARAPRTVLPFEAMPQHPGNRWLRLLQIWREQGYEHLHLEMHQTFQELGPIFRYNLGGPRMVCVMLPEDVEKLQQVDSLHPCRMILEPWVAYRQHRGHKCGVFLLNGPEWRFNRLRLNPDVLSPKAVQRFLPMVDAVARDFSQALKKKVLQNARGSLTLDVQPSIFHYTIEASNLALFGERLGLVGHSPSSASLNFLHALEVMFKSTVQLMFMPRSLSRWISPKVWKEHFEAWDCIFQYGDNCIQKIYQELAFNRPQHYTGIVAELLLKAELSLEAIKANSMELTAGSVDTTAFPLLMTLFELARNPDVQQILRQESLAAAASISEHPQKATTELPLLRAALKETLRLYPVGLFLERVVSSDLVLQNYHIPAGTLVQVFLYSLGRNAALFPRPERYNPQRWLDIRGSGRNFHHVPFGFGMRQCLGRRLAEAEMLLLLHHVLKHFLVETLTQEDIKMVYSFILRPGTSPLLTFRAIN
The data set is described as follows: Inhibition of human CYP11B2 expressed in hamster V79MZh cells using [1,2-3H]-11-deoxycorticosterone as substrate.

Another data set concerns the target T4, CYP17 (Homo sapiens, UniProt P05093).
T4 sequence (P05093 whole entry): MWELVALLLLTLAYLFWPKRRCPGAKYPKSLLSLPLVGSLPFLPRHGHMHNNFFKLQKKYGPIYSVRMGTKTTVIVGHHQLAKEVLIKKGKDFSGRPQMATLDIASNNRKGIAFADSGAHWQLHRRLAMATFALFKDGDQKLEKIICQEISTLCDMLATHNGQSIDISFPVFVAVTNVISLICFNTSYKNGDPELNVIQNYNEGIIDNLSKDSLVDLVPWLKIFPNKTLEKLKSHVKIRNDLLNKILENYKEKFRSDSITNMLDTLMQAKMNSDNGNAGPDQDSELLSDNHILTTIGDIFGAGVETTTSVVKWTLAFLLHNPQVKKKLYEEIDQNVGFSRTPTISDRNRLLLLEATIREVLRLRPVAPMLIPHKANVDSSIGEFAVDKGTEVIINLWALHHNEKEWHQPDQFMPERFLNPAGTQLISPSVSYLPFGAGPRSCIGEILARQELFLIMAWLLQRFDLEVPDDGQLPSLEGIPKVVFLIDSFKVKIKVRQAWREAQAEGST
The data set is described as follows: Inhibition of human CYP17 expressed in Escherichia coli using progesterone as substrate at 2 uM. The conditions noted are these: probe progesterone.

The test system of data set [5] is Salmonella typhimurium. The data set is described as follows: Mutagenicity in Salmonella typhimurium TA98 up to 100 uM by Ames II assay. In kind it is toxicity, organism-based. To be noted: salmonella enterica subsp. enterica serovar typhimurium. On the technique in general: The Ames test uses bacterial strains that need an amino acid and regain growth without it when mutated back.

For data set [6], the system named is Salmonella typhimurium. The data set is described as follows: Mutagenicity in Salmonella typhimurium TA7001/7002/7003/7004/7005/7006 up to 100 uM by Ames II assay in presence of S9 fraction. The conditions noted are these: salmonella enterica subsp. enterica serovar typhimurium. In kind it is toxicity, organism-based.
Data set [7] can be described thus: Half life in human liver S9 fraction by LC-MS/MS analysis. In kind it is ADME, subcellular.
For data set [8], the system named is Salmonella typhimurium. The data set is described as follows: Mutagenicity in Salmonella typhimurium TA7001/7002/7003/7004/7005/7006 up to 100 uM by Ames II assay. In kind it is toxicity, organism-based. The conditions noted are these: salmonella enterica subsp. enterica serovar typhimurium.
A short description of data set [9]: Half life in human plasma by LC-MS/MS analysis. In kind it is ADME, cell-free.
Data set [10] deals with Salmonella typhimurium. The data set is described as follows: Mutagenicity in Salmonella typhimurium TA98 up to 100 uM by Ames II assay in presence of S9 fraction. To be noted: salmonella enterica subsp. enterica serovar typhimurium. In kind it is toxicity, organism-based.

Regarding `COc1cccc(S(=O)(=O)N2CCCc3cc(Cc4ccncc4)ccc32)c1`, the inhibition at 2 µM was determined as 88% against CYP19 (aromatase) and 14% at CYP17. In addition, the Ratio IC50 in the data set on V79MZh [1] and with V79MZh [2] was over 60 throughout. Moreover, the figures for the IC50 in data set [3] and in data set [4] were 6 nM and 5 nM, respectively.
Turning to `O=S(=O)(c1cccc(Cl)c1)N1CCCc2cc(-c3cccnc3)ccc21`, the 50% inhibitory concentration (IC50) in data set [3] is 62 nM; in data set [4], 344 nM.
Consider `COc1cccc(S(=O)(=O)N2CCCc3cc(-c4cccnc4)ccc32)c1`, for which the inhibition at 2 µM against CYP19 (aromatase) stood at 32%; on CYP17, 11%. Also, the Ratio IC50 with V79MZh [1] and with V79MZh [2] was over 60 in each case. The IC50 came out at 28 nM in [3] and 85 nM in data set [4].
With `COc1cccc(S(=O)(=O)N2CCCc3cc(-c4ccncc4)ccc32)c1`, the concentration for half-maximal inhibition (IC50) in data set [3] was over 5000 nM.
Compound `O=S(=O)(C1CCCCC1)N1CCCc2cc(-c3cccnc3)ccc21` showed an IC50 in [3] of 1170 nM.
With `COc1cccc(S(=O)(=O)N2CCc3cc(-c4cccnc4)ccc32)c1`, the IC50 came out at 111 nM in data set [3] and 251 nM in data set [4].
Take `N#Cc1cccc(S(=O)(=O)N2CCCc3cc(-c4cccnc4)ccc32)c1`: the half-inhibitory concentration (IC50) in data set [3] came to 65 nM; in [4], 429 nM.
Take `COc1cccc(S(=O)(=O)N2CCc3cc(-c4cccnc4)cnc32)c1`: in data set [3], inhibition was half-maximal at 587 nM (IC50).
In the case of `N#Cc1ccc(S(=O)(=O)N2CCCc3cc(-c4cccnc4)ccc32)cc1`, the IC50 is 114 nM in data set [3] and 557 nM in data set [4].
On to `Cc1ccc(S(=O)(=O)N2CCCc3cc(-c4cccnc4)ccc32)cc1`, for which the results for the IC50 in [3] and in data set [4] were 278 nM and 555 nM, respectively.
With `Cc1cccc(S(=O)(=O)N2CCCc3cc(-c4cccnc4)ccc32)c1`, the inhibition at 2 µM against CYP19 (aromatase) is 29%; at CYP17, 9%. Besides, the Ratio IC50 in the data set with V79MZh [1] and in the data set with V79MZh [2] was over 60 throughout. Also, the IC50 in [3] was determined as 26 nM; in [4], 205 nM.
On to `COc1cccc(S(=O)(=O)N(C)c2ccc(-c3cccnc3)cc2)c1`, for which the IC50 in [3] came out at 68 nM; in data set [4], 239 nM.
For `O=S(=O)(c1ccc(F)cc1)N1CCCc2cc(-c3cccnc3)ccc21`, the results for the IC50 in [3] and in data set [4] were 49 nM and 260 nM, respectively.
`COc1cccc(S(=O)(=O)N2CCc3cc(-c4ccncc4)cnc32)c1`: the IC50 in data set [3] was determined as 1750 nM.
`O=S(=O)(c1ccc2ccccc2c1)N1CCCc2cc(-c3cccnc3)ccc21`: half-maximal inhibition in data set [3] (IC50) was put at 663 nM.
Regarding `O=S(=O)(c1cccc(C(F)(F)F)c1)N1CCCc2cc(-c3cccnc3)ccc21`, the IC50 in data set [3] was found to be 309 nM; in data set [4], 607 nM.
For the compound `COc1cccc(S(=O)(=O)N(Cc2ccccc2)c2ccc(-c3cccnc3)cc2)c1`, 2000 nM corresponded to half-maximal inhibition in [3] (IC50).
Regarding `O=S(=O)(c1cccc(F)c1)N1CCCc2cc(-c3cccnc3)ccc21`, the IC50 is 71 nM in data set [3] and 196 nM in data set [4].
Compound `O=S(=O)(c1ccc(C(F)(F)F)cc1)N1CCCc2cc(-c3cccnc3)ccc21` displayed an IC50 in [3] of 1220 nM. In other words, the single-digit micromolar range.
Turning to `O=S(=O)(c1cccs1)N1CCCc2cc(-c3cccnc3)ccc21`, the IC50 in data set [3] is 60 nM; in [4], 259 nM.
`COc1cccc(S(=O)(=O)Nc2ccc(-c3cccnc3)cc2)c1`: the values for the IC50 in data set [3] and in data set [4] were 188 nM and 850 nM, respectively.
As for `O=S(=O)(c1ccccc1)N1CCCc2cc(-c3cccnc3)ccc21`, the IC50 in [3] worked out at 65 nM; in data set [4], 295 nM.
On to `COc1ccc(S(=O)(=O)N2CCCc3cc(-c4cccnc4)ccc32)cc1`, for which the IC50 was determined as 334 nM in data set [3] and 519 nM in data set [4].
On to `O=S(=O)(c1cccc(OC(F)(F)F)c1)N1CCCc2cc(-c3cccnc3)ccc21`, for which the IC50 in data set [3] is 382 nM; in [4] it was 322 nM.
As to `COc1cccc(S(=O)(=O)N2CCCc3cc(Cc4cccnc4)ccc32)c1`, the values for the inhibition at 2 µM against CYP19 (aromatase) and against CYP17 were 26% and 9%, respectively. In addition, the Activity result with Salmonella typhimurium [5], in the data set on Salmonella typhimurium [6], in the data set with Salmonella typhimurium [8] and in the data set with Salmonella typhimurium [10] was “Non-toxic” throughout. For the same compound, the Ratio IC50 in the data set with V79MZh [1] and in the data set on V79MZh [2] was over 60 throughout. Further, the half-life in data set [7] is 16 min; in data set [9], over 150 min. For the same compound, the IC50 was 5 nM in data set [3] and 8 nM in data set [4].
In the case of `CC(C)(C(=O)c1cccnc1)c1cccnc1` [METYRAPONE], in data set [7], the half-life was found to be 49 min.
In the case of `O=S(=O)(c1ccc(OC(F)(F)F)cc1)N1CCCc2cc(-c3cccnc3)ccc21`, in [3], the IC50 came out at 929 nM.
On to `O=S(=O)(c1ccc(Cl)cc1)N1CCCc2cc(-c3cccnc3)ccc21`, for which the IC50 stood at 137 nM in [3] and 469 nM in data set [4].
As to `O=S(=O)(c1cccc(F)c1)N1CCc2cc(-c3cccnc3)ccc21`, the IC50 in data set [3] turned out to be 327 nM; in data set [4], 850 nM.
